Test system: MCF-7 breast cancer cells
Assay: Microarray gene expression analysis (Agilent whole human genome 4 x 44K; compound vs DMSO, LIMMA log2 fold change)
Format: cell-based
Settings: Apoptosis genes

Compound: Oc1cccc(-c2nc(N3CCOCC3)c3oc4ncccc4c3n2)c1 [PI-103]
- TBX1 log2FC (Gene 6899): 0.079
- TBX5 log2FC (Gene 6910): 0.103
- TBX3 log2FC (Gene 6926): -0.691
- TCF7L2 log2FC (Gene 6934): 0.036
- TDGF1 log2FC (Gene 6997): 0.005
- PRDX2 log2FC (Gene 7001): 0.385
- TERF1 log2FC (Gene 7013): 0.376
- TERT log2FC (Gene 7015): -0.048
- TFAP2A log2FC (Gene 7020): -0.507
- TFAP2B log2FC (Gene 7021): -0.150
- TFAP4 log2FC (Gene 7023): 0.386
- TGFA log2FC (Gene 7039): -0.533
- TGFB1 log2FC (Gene 7040): -0.436
- TGFB3 log2FC (Gene 7043): 0.355
- TGFBR1 log2FC (Gene 7046): 0.121
- TGFBR2 log2FC (Gene 7048): 0.950
- TGM2 log2FC (Gene 7052): -0.690
- THBS1 log2FC (Gene 7057): -0.908
- THRA log2FC (Gene 7067): 0.660
- TIA1 log2FC (Gene 7072): 0.065
- TIAL1 log2FC (Gene 7073): 0.160
- TIAM1 log2FC (Gene 7074): -0.173
- TIMP1 log2FC (Gene 7076): -0.137
- TJP1 log2FC (Gene 7082): 0.317
- TLE1 log2FC (Gene 7088): 0.501
- TLR2 log2FC (Gene 7097): -0.157
- TLR3 log2FC (Gene 7098): 0.801
- NR2E1 log2FC (Gene 7101): -0.112
- TMF1 log2FC (Gene 7110): 0.594
- TNF log2FC (Gene 7124): -1.866
- TNFAIP1 log2FC (Gene 7126): -0.271
- TNFAIP3 log2FC (Gene 7128): -0.853
- TNFRSF1A log2FC (Gene 7132): -0.921
- TOP2A log2FC (Gene 7153): 0.914
- TP53 log2FC (Gene 7157): 0.057
- TP53BP2 log2FC (Gene 7159): 0.347
- TP73 log2FC (Gene 7161): -0.255
- TPD52L1 log2FC (Gene 7164): 0.154
- TPT1 log2FC (Gene 7178): 0.376
- HSP90B1 log2FC (Gene 7184): 0.295
- TRAF1 log2FC (Gene 7185): -0.626
- TRAF3 log2FC (Gene 7187): -0.946
- TRAF5 log2FC (Gene 7188): 0.350
- TRAF6 log2FC (Gene 7189): -0.154
- TRIO log2FC (Gene 7204): 0.335
- TRPS1 log2FC (Gene 7227): 0.634
- PHLDA2 log2FC (Gene 7262): -3.120
- TWIST1 log2FC (Gene 7291): 0.425
- TNFRSF4 log2FC (Gene 7293): 0.091
- TYRO3 log2FC (Gene 7301): 0.021
- UBA52 log2FC (Gene 7311): 0.306
- UBB log2FC (Gene 7314): 0.036
- UBC log2FC (Gene 7316): 0.333
- UBE2B log2FC (Gene 7320): 0.652
- UBE2D3 log2FC (Gene 7323): -0.368
- UCN log2FC (Gene 7349): 0.293
- UCP2 log2FC (Gene 7351): 0.166
- UNG log2FC (Gene 7374): -0.352
- VAV1 log2FC (Gene 7409): 0.641
- VAV2 log2FC (Gene 7410): 0.038
- VCP log2FC (Gene 7415): -0.262
- VDAC1 log2FC (Gene 7416): -0.421
- VDR log2FC (Gene 7421): -1.024
- VEGFB log2FC (Gene 7423): 0.125
- VHL log2FC (Gene 7428): -0.079
- WFS1 log2FC (Gene 7466): -0.599
- WNT5A log2FC (Gene 7474): 0.134
- WNT7A log2FC (Gene 7476): -0.086
- WNT7B log2FC (Gene 7477): -0.378
- WNT10B log2FC (Gene 7480): -0.488
- WNT11 log2FC (Gene 7481): -0.088
- WNT9A log2FC (Gene 7483): 0.041
- WRN log2FC (Gene 7486): 0.379
- WT1 log2FC (Gene 7490): -0.652
- XDH log2FC (Gene 7498): 0.004
- XPA log2FC (Gene 7507): 0.468
- XRCC2 log2FC (Gene 7516): -0.599
- XRCC4 log2FC (Gene 7518): 0.561
- YWHAB log2FC (Gene 7529): 0.178
- YWHAE log2FC (Gene 7531): 0.050
- YWHAG log2FC (Gene 7532): -0.883
- YWHAH log2FC (Gene 7533): -0.481
- YWHAZ log2FC (Gene 7534): -0.301
- ZNF16 log2FC (Gene 7564): 0.344
- PCGF2 log2FC (Gene 7703): -0.113
- DAP3 log2FC (Gene 7818): 0.276
- BTG2 log2FC (Gene 7832): -1.051
- PAX8 log2FC (Gene 7849): 0.485
- FZD5 log2FC (Gene 7855): -0.196
- SCG2 log2FC (Gene 7857): 0.168
- NR4A3 log2FC (Gene 8013): 0.337
- LHX3 log2FC (Gene 8022): 0.039
- RASSF7 log2FC (Gene 8045): 0.194
- FOSL1 log2FC (Gene 8061): -2.531
- CUL5 log2FC (Gene 8065): -0.235
- FXR1 log2FC (Gene 8087): 0.653
- HMGA2 log2FC (Gene 8091): -1.508
- GDF5 log2FC (Gene 8200): -0.438
- RBM10 log2FC (Gene 8241): -0.115
- AXIN1 log2FC (Gene 8312): 0.422
- NME5 log2FC (Gene 8382): 0.271
- PLA2G6 log2FC (Gene 8398): -0.123
- SRPX log2FC (Gene 8406): 0.201
- STK24 log2FC (Gene 8428): -0.049
- NSMAF log2FC (Gene 8439): 0.165
- DYRK2 log2FC (Gene 8445): -0.467
- CUL4A log2FC (Gene 8451): 0.376
- CUL3 log2FC (Gene 8452): 0.00335
- CUL2 log2FC (Gene 8453): 0.251
- CUL1 log2FC (Gene 8454): 0.207
- KLF11 log2FC (Gene 8462): 1.202
- OGT log2FC (Gene 8473): 0.352
- IKBKG log2FC (Gene 8517): -0.216
- CBX4 log2FC (Gene 8535): -0.090
- API5 log2FC (Gene 8539): -0.497
- YARS log2FC (Gene 8565): -0.500
- MADD log2FC (Gene 8567): 0.749
- UNC5C log2FC (Gene 8633): 0.011
- AKR1C3 log2FC (Gene 8644): 0.528
- NCOA1 log2FC (Gene 8648): 0.476
- DYNLL1 log2FC (Gene 8655): -1.055
- IRS2 log2FC (Gene 8660): 0.876
- BECN1 log2FC (Gene 8678): 0.354
- PEA15 log2FC (Gene 8682): 0.569
- HYAL2 log2FC (Gene 8692): -0.333
- TRADD log2FC (Gene 8717): 0.506
- TNFRSF25 log2FC (Gene 8718): -0.549
- RIPK1 log2FC (Gene 8737): -0.336
- CRADD log2FC (Gene 8738): -0.080
- HRK log2FC (Gene 8739): 0.399
- RIPK2 log2FC (Gene 8767): 0.379
- TNFRSF6B log2FC (Gene 8771): -1.304
- FADD log2FC (Gene 8772): -0.617
- TNFRSF18 log2FC (Gene 8784): -0.038
- TNFRSF10D log2FC (Gene 8793): -0.508
- TNFRSF10B log2FC (Gene 8795): -0.908
- TNFRSF10A log2FC (Gene 8797): -0.907
- TRIM24 log2FC (Gene 8805): 0.826
- NRP1 log2FC (Gene 8829): -0.252
- SYNGAP1 log2FC (Gene 8831): -0.399
- SOCS2 log2FC (Gene 8835): 0.381
- CFLAR log2FC (Gene 8837): -0.542
- HDAC3 log2FC (Gene 8841): -0.248
- ALKBH1 log2FC (Gene 8846): -0.111
- TSC22D1 log2FC (Gene 8848): 0.388
- CDK5R1 log2FC (Gene 8851): -0.328
- ALDH1A2 log2FC (Gene 8854): 0.042
- IER3 log2FC (Gene 8870): -2.265
- ARHGEF7 log2FC (Gene 8874): 0.044
- SPHK1 log2FC (Gene 8877): -0.416
- SQSTM1 log2FC (Gene 8878): 0.782
- SGPL1 log2FC (Gene 8879): -0.0047
- TAX1BP1 log2FC (Gene 8887): 1.267
- BCL10 log2FC (Gene 8915): 0.116
- MBD4 log2FC (Gene 8930): 0.294
- NOL3 log2FC (Gene 8996): 0.486
